Like-named read-outs stand apart in the source and are kept apart here.
How the values were obtained:
[1] = target: T1, PPAR-γ (Mus musculus, UniProt P37238); assay: 3T3-L1 transient reporter assay (AD3T3-L1 reporter); assay type: cell-based, murine; conditions: for EC50: 3T3-L1 cells, aP2 promoter luciferase reporter, 48 hours
T1 construct: endogenous in cells; host or cells: 3T3-L1 preadipocytes, differentiated for about 3 days with methyl isobutylxanthine, dexamethasone and insulin
T1 sequence (P37238 1-505): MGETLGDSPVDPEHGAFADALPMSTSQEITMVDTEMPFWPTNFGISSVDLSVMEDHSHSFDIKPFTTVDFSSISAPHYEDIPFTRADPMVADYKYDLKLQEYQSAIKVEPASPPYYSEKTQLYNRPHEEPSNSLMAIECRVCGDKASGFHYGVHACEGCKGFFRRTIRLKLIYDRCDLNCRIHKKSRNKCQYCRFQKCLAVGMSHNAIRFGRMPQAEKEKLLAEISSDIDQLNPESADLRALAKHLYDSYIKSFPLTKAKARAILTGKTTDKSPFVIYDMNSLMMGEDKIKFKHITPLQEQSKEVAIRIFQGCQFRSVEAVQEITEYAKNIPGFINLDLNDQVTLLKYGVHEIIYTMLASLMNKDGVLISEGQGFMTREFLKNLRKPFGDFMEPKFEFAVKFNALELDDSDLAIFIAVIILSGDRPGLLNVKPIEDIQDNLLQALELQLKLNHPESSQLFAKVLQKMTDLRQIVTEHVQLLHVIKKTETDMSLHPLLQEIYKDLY
Method: This assay is used to determine the potential of putative PPAR-γ ligands to activate the promoter/enhancer of the murine aP2 gene. 3T3-L1 preadipocytes are cultured on collagen coated plates in DMEM containing 10% Calf serum for 48 hours post-confluence. The cells are then cultured for approximately 3 days in DMEM containing 10% Fetal Bovine Serum (FBS), 0.5-mM methyl isobutylxanthine, 0.25 μM dexamethasone, and 1 μg/ml of insulin. Cells are detached from the plates with Trypsin-EDTA and resuspended in Phosphate Buffered Saline (PBS).
The reporter construct used in this assay is comprised of the —5.4 Kb 5′ flanking region of the murine aP2 gene inserted into the cloning site of the TKpGL3 luciferase vector. Transfection efficiency is controlled by co-transfection of the reference plasmid CMV-β-galactosidase. The reporter construct and the reference plasmid are transiently co-transfected into the cells by electroporation. The transfected cells are plated into collagen coated 96-well plates and cultured overnight. Cells are then incubated for 48 hours with the test compounds and then harvested. The lysates are measured for luciferase and β-galactosidase activities using the Dual-Light® luciferase kit from Tropix on a EG&G Berthold MicroLumat LB96P luminometer.

[2] = system: Ob/Ob diabetic mouse model; assay: Blood glucose measurement (Glucose Δ) in Ob/Ob diabetic mouse model; assay type: in vivo
Method: Glucose is obtained 4 hours post dose via tail vein stick (5 μl whole blood) in awake, 4 hour fasted animals. Blood is drawn by capillary action into a glucose cuvette and read in a HemoCue Glucose Analyzer (Ryan Diagnostics). Blood is diluted 1:2 with saline if glucose levels are greater than 400 mg/dl (meter high range) and results multiplied by two.

[3] = 3T3-L1, maximal response relative to rosiglitazone, read-out: AD3T3-L1 Reporter Max. % Rosi (maximal response)

| Compound | Emax ([1]; 3T3-L1, read-out: AD3T3-L1 Reporter Max. % Rosi (maximal response)) [%] | EC50 [1] [nM] | Emax [1, 3] [%] | In VIVO Δ Glucose @ 20 mg/kg ([2]; 20 mg/kg, glucose 4 hours post dose) [mg/dL] | In VIVO % Rosiglitazone ([2]; 20 mg/kg, glucose change relative to rosiglitazone) [%] | Blood glucose in Ob/Ob diabetic mouse model ([2]; Ob/Ob diabetic mouse, in 3 days at 20 mg/Kg) |
| --- | --- | --- | --- | --- | --- | --- |
| Cc1oc(-c2ccccc2)nc1CCCC#CCC(C(=O)O)n1cccc1 (stereo not drawn) [Example 1-11] | 108 | 89 |  |  |  |  |
| Cc1oc(-c2ccccc2)nc1CCCC#CCC(C(=O)O)c1cccs1 (stereo not drawn) [Example 1-13, 8-(5-Methyl-2-phenyl-oxazol-4-yl)-2-thiophen-2-yl-oct-4-ynoic Acid] |  | 303 | 97 |  |  |  |
| Cc1oc(-c2ccccc2)nc1CCCC#CCC(C(=O)O)n1nccn1 (stereo not drawn) [Example 1-15, 8-(5-Methyl-2-phenyl-oxazol-4-yl)-2-[1,2,3]triazol-2-yl-oct-4-ynoic Acid] |  | 15 | 103 | -258 | 180 | Normalized blood glucose |
